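Each compound was tested at five concentrations against cells in 96-well plates for 48 hours. GI50 is the concentration that inhibits growth by half. TGI: total growth inhibition.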
Experiments:
Test in all cases: NCI-60 cell line screen, 48 h
ACHN renal = test system: ACHN renal
COLO 205 colon = test system: COLO 205 colon
HOP-62 NSCLC = test system: HOP-62 NSCLC
NCI-H522 lung = test system: NCI-H522 lung
NCI/ADR-RES ovarian = test system: NCI/ADR-RES ovarian
SF-268 CNS = test system: SF-268 CNS
SF-539 CNS = test system: SF-539 CNS
SN12C renal = test system: SN12C renal
SNB-75 CNS = test system: SNB-75 CNS
UACC-257 melanoma = test system: UACC-257 melanoma

SMILES	GI50 (ACHN renal) [µM]	TGI (ACHN renal) [µM]	GI50 (COLO 205 colon) [µM]	TGI (COLO 205 colon) [µM]	GI50 (HOP-62 NSCLC) [µM]	TGI (HOP-62 NSCLC) [µM]	GI50 (NCI-H522 lung) [µM]	TGI (NCI-H522 lung) [µM]	GI50 (NCI/ADR-RES ovarian) [µM]	TGI (NCI/ADR-RES ovarian) [µM]	GI50 (SF-268 CNS) [µM]	TGI (SF-268 CNS) [µM]	GI50 (SF-539 CNS) [µM]	TGI (SF-539 CNS) [µM]	GI50 (SN12C renal) [µM]	TGI (SN12C renal) [µM]	GI50 (SNB-75 CNS) [µM]	TGI (SNB-75 CNS) [µM]	GI50 (UACC-257 melanoma) [µM]	TGI (UACC-257 melanoma) [µM]
O=C1CSC(=S)N1Cc1cccnc1	6.14	19.5	5.59	21.1	47	> 100	2.22	5.83	24	> 100	5.75	23.3	6.33	23.4	14.5	29.2	16.2	72.5	5.97	21.9
COc1cc(/C=C/C(=O)C(C(=O)/C=C/c2ccc(OC(=O)CCNc3nnc(C)s3)c(OC)c2)C(=O)CCNc2nnc(C)s2)ccc1OC(=O)CCNc1nnc(C)s1	2.28	5.22	2.57	6.94	5.02	> 31.8	2.49	7.79	3.87	> 38.8	2.64	11.2	2.43	6.03	2.49	10.2	6.19	34.5	2.64	8.31
Cc1[nH]n(-c2ccc(S(=O)(=O)O)cc2)c(=O)c1N=Nc1ccccc1	–	> 100	–	> 100	–	> 100	–	> 100	–	> 100	–	> 100	–	> 100	–	> 100	–	> 100	–	> 100
O=C1Nc2ccccc2/C1=C/c1cn(C(=O)c2c(Cl)cccc2Cl)c2ccccc12	3.17	21.7	7.52	22.2	12.8	40.4	4.22	17.5	3.4	18	2.38	10.6	4.96	21.1	4	19.3	–	–	5	24.8
CNc1cccnc1/C=N/NC(N)=S	–	1.76	–	> 10	–	> 8.19	–	> 10	–	9.94	–	> 10	–	1.54	–	> 8.25	–	> 7.14	–	> 10
CC(=O)c1c(O)ccc2c(C)c(C(=O)O)oc12	> 100	> 100	> 100	> 100	> 100	> 100	> 100	> 100	> 100	> 100	> 100	> 100	> 100	> 100	–	–	> 100	> 100	> 100	> 100
Cn1cnc([N+](=O)[O-])c1SC1=NCCS1	–	> 100	–	> 100	–	> 100	–	41.7	–	–	–	> 100	–	> 100	–	> 100	–	> 100	–	> 100
O=C1c2cccc3cccc(c23)C(=O)N1CCCCN1CCN(CCCCOc2ccc(-c3nc4ccc(N5CCOCC5)cc4[nH]3)cc2)CC1	3.19	> 100	> 100	> 100	> 100	> 100	> 100	> 100	> 100	> 100	> 100	> 100	> 100	> 100	–	–	> 100	> 100	15	> 100
CCCCCCCCCCCCSC(=NC)NC	1.73	3.35	–	–	1.94	4.59	–	–	2.06	4.53	3.82	22.5	1.67	3.14	2.67	7.69	1.78	3.55	2.15	5.14
O=C1CCCC(=O)C1=C(O)CCCCCCCCCCc1ccccc1	–	> 100	–	31.8	–	> 100	–	82.2	–	–	–	> 100	–	> 100	–	> 100	–	95.4	–	> 100
COc1cc(C(=O)/C=C/c2c(-c3ccc(F)cc3)nc3ncccn23)cc(OC)c1OC	2.21	6.45	–	–	3.12	24.5	2.87	10.6	1.58	5.11	1.9	14.1	1.55	3.77	2.26	36.1	2.39	9.37	3.73	> 100
COC(=O)c1oc2c(O)c(OC)c(Br)cc2c1C	20.2	36.2	22.5	48.3	23.3	51.4	37.4	> 100	–	–	31	> 100	–	–	–	–	–	–	24.5	99.6
COc1cc(C2CC(c3ccc(Nc4ccnc5cc(Cl)ccc45)cc3)=NN2C=O)cc(OC)c1OC (stereo not drawn)	3.24	10.6	3.73	70.4	4.13	20.8	–	–	7.88	> 100	28	> 100	2.75	6.38	4.37	42.4	5.19	32.5	2.84	8.28
O=C1Cc2ccccc2N1c1c(Cl)cccc1Cl	–	> 100	–	> 100	–	> 100	–	> 100	–	–	–	> 100	–	> 100	–	> 100	–	> 100	–	> 100
CO/N=C(\COc1ccc2c(c1)oc(=O)c1cc(OC)ccc12)c1cccc(OC)c1	–	–	> 100	> 100	> 100	> 100	> 100	> 100	> 100	> 100	> 100	> 100	> 100	> 100	> 100	> 100	> 100	> 100	> 100	> 100

Reference: PubChem BioAssay (NCI)
